Data published in patent US10519177B2, “Heterocyclic compounds and uses thereof” (Plexxikon Inc., priority 2013, dated 2019).

Each compound was assayed on bromodomain (assay: at least one of the bromodomain cell assays of Example 57). Details: at least one of the bromodomain cell assays described in Example 57; read-out: IC50 in at least one of the bromodomain cell assays.
Type: cell-based

IC50, < 10 µM:
Cc1noc(C)c1-c1cnc2c(-c3ccc(C(=O)O)cc3)cn(CC3CCOCC3)c2c1 [P-0769, 4-[6-(3,5-dimethylisoxazol-4-yl)-1-(tetrahydropyran-4-ylmethyl)pyrrolo[3,2-b]pyridin-3-yl]benzoic acid]
C[C@@H](c1ccccn1)n1cc(-c2ccc(C(=O)O)cc2)c2ccc(-c3cc(Cl)c(=O)n(C)c3)cc21 [P-0765, 4-[6-(5-chloro-1-methyl-6-oxo-3-pyridyl)-1-[(1S)-1-(2-pyridyl)ethyl]indol-3-yl]benzoic acid]
Cc1ccc(-c2cn(CC3(C)CCCCC3)c3cc(-c4c(C)noc4C)cnc23)cc1 [P-0792, 3,5-dimethyl-4-[1-[(1-methylcyclohexyl)methyl]-3-(p-tolyl)pyrrolo[3,2-b]pyridin-6-yl]isoxazole]
Cc1ccc(-c2cn([C@H](c3ccccn3)C3CCCCC3)c3cc(-c4c(C)noc4C)cnc23)cc1 [P-0818, 4-[1-[(S)-cyclohexyl(2-pyridyl)methyl]-3-(p-tolyl)pyrrolo[3,2-b]pyridin-6-yl]-3,5-dimethyl-isoxazole]
Cc1noc(C)c1-c1cnc2c(-c3ccc(CO)cc3)cn([C@@H](c3ccccc3)c3ccccn3)c2c1 [P-0713, [4-[6-(3,5-dimethylisoxazol-4-yl)-1-[(S)-phenyl(2-pyridyl)methyl]pyrrolo[3,2-b]pyridin-3-yl]phenyl]methanol]
Cc1noc(C)c1-c1ccc2c(-c3ccc(C(=O)O)cc3)cn(CC3(C)CCCCC3)c2c1 [P-0779, 4-[6-(3,5-dimethylisoxazol-4-yl)-1-[(1-methylcyclohexyl)methyl]indol-3-yl]benzoic acid]
Cc1cc(-c2cnc3c(-c4ccc(C(=O)O)cc4)cn([C@@H](C)c4ccccn4)c3c2)cn(C)c1=O [P-0761, 4-[6-(1,5-dimethyl-6-oxo-3-pyridyl)-1-[(1S)-1-(2-pyridyl)ethyl]pyrrolo[3,2-b]pyridin-3-yl]benzoic acid]
Cc1noc(C)c1-c1ccc2c(-c3ccc(CO)cc3)cn([C@@H](c3ccccc3)c3ccccn3)c2c1 [P-0753, [4-[6-(3,5-dimethylisoxazol-4-yl)-1-[(S)-phenyl(2-pyridyl)methyl]indol-3-yl]phenyl]methanol]
Cn1cc(-c2cnc3c(-c4ccc(C(=O)O)cc4)cn(CC4CCCCC4)c3c2)cc(Cl)c1=O [P-0764, 4-[6-(5-chloro-1-methyl-6-oxo-3-pyridyl)-1-(cyclohexylmethyl)pyrrolo[3,2-b]pyridin-3-yl]benzoic acid]
Cc1ccc(-c2cn(CC3(F)CCC(F)(F)CC3)c3cc(-c4c(C)nnn4C)cnc23)cc1 [P-0808, 6-(3,5-dimethyltriazol-4-yl)-3-(p-tolyl)-1-[(1,4,4-trifluorocyclohexyl)methyl]pyrrolo[3,2-b]pyridine]
Cc1noc(C)c1-c1ccc2c(-c3ccc(C(=O)O)cc3)cn([C@@H](c3ccccc3)c3ccccn3)c2c1 [P-0751, 4-[6-(3,5-dimethylisoxazol-4-yl)-1-[(S)-phenyl(2-pyridyl)methyl]indol-3-yl]benzoic acid]
Cc1noc(C)c1-c1ccc2c(-c3ccc(P(=O)(O)O)cc3)cn(CC3CCC(F)(F)CC3)c2c1 [P-0747, [4-[1-[(4,4-difluorocyclohexyl)methyl]-6-(3,5-dimethylisoxazol-4-yl)indol-3-yl]phenyl]phosphonic acid]
Cc1cc(-c2cnc3c(-c4ccc(C(=O)O)cc4)cn(CC4CCCCC4)c3c2)cn(C)c1=O [P-0759, 4-[1-(cyclohexylmethyl)-6-(1,5-dimethyl-6-oxo-3-pyridyl)pyrrolo[3,2-b]pyridin-3-yl]benzoic acid]
Cc1noc(C)c1-c1ccc2c(-c3ccc(C#N)nc3)cn([C@H](c3ccccc3)c3ccccn3)c2c1 [P-0758, 5-[6-(3,5-dimethylisoxazol-4-yl)-1-[(R)-phenyl(2-pyridyl)methyl]indol-3-yl]pyridine-2-carbonitrile]
Cc1noc(C)c1-c1cnc2c(-c3ccc(C(C)(C)C)cc3)cn(Cc3ccccn3)c2c1 [P-0804, 4-[3-(4-tert-butylphenyl)-1-(2-pyridylmethyl)pyrrolo[3,2-b]pyridin-6-yl]-3,5-dimethyl-isoxazole]
[2H]C([2H])([2H])c1ccc(-c2cn([C@H](c3ccccc3)c3ccccn3)c3cc(-c4c(C)noc4C)cnc23)cc1 [P-0787, 3,5-dimethyl-4-[1-[(R)-phenyl(2-pyridyl)methyl]-3-[4-(trideuteriomethyl)phenyl]pyrrolo[3,2-b]pyridin-6-yl]isoxazole]
Cc1noc(C)c1-c1cnc2c(-c3ccc(C(=O)OC(C)C)cc3)cn(CC3CCC(F)(F)CC3)c2c1 [P-0618, isopropyl 4-[1-[(4,4-difluorocyclohexyl)methyl]-6-(3,5-dimethylisoxazol-4-yl)pyrrolo[3,2-b]pyridin-3-yl]benzoate]
Cc1noc(C)c1-c1cnc2c(-c3ccc(C(C)(C)C(=O)O)cc3)cn(CC3CCOCC3)c2c1 [P-0773, 2-[4-[6-(3,5-dimethylisoxazol-4-yl)-1-(tetrahydropyran-4-ylmethyl)pyrrolo[3,2-b]pyridin-3-yl]phenyl]-2-methyl-propanoic acid]
Cc1noc(C)c1-c1cnc2c(-c3ccc(CC(=O)O)cc3)cn(CC3CCOCC3)c2c1 [P-0771, 2-[4-[6-(3,5-dimethylisoxazol-4-yl)-1-(tetrahydropyran-4-ylmethyl)pyrrolo[3,2-b]pyridin-3-yl]phenyl]acetic acid]
CCOC(=O)c1ccc(-c2cn(CC3CCCCC3)c3cc(-c4c(C)noc4C)cnc23)cc1 [P-0707, ethyl 4-[1-(cyclohexylmethyl)-6-(3,5-dimethylisoxazol-4-yl)pyrrolo[3,2-b]pyridin-3-yl]benzoate]
Cc1noc(C)c1-c1cnc2c(-c3ccc(C(C)(C)C)cc3)cn([C@@H](c3ccccc3)c3ccccn3)c2c1 [P-0813, 4-[3-(4-tert-butylphenyl)-1-[(S)-phenyl(2-pyridyl)methyl]pyrrolo[3,2-b]pyridin-6-yl]-3,5-dimethyl-isoxazole]
Cc1noc(C)c1-c1ccc2c(-c3ccc(CO)cc3)cn([C@H](c3ccccc3)c3ccccn3)c2c1 [P-0757, [4-[6-(3,5-dimethylisoxazol-4-yl)-1-[(R)-phenyl(2-pyridyl)methyl]indol-3-yl]phenyl]methanol]
[2H]C([2H])([2H])c1ccc(-c2cn(CC3CCCCC3)c3cc(-c4c(C)noc4C)cnc23)cc1 [P-0785, 4-[1-(cyclohexylmethyl)-3-[4-(trideuteriomethyl)phenyl]pyrrolo[3,2-b]pyridin-6-yl]-3,5-dimethyl-isoxazole]
[2H]C([2H])([2H])c1ccc(-c2cn([C@@H](c3ccccc3)c3ccccn3)c3cc(-c4c(C)noc4C)cnc23)cc1 [P-0786, 3,5-dimethyl-4-[1-[(S)-phenyl(2-pyridyl)methyl]-3-[4-(trideuteriomethyl)phenyl]pyrrolo[3,2-b]pyridin-6-yl]isoxazole]
Cc1noc(C)c1-c1cnc2c(-c3ccc(C(=O)O)cc3)cn([C@H](c3ccccn3)C3CCCC3)c2c1 [P-0819, 4-[1-[(S)-cyclopentyl(2-pyridyl)methyl]-6-(3,5-dimethylisoxazol-4-yl)pyrrolo[3,2-b]pyridin-3-yl]benzoic acid]
Cc1noc(C)c1-c1cnc2c(-c3ccc4c(c3)CCOC4=O)cn(CC3CCCCC3)c2c1 [P-0799, 6-[1-(cyclohexylmethyl)-6-(3,5-dimethylisoxazol-4-yl)pyrrolo[3,2-b]pyridin-3-yl]isochroman-1-one]
Cc1noc(C)c1-c1cnc2c(-c3ccc(CC(=O)O)cc3)cn(CC3(C)CCCCC3)c2c1 [P-0781, 2-[4-[6-(3,5-dimethylisoxazol-4-yl)-1-[(1-methylcyclohexyl)methyl]pyrrolo[3,2-b]pyridin-3-yl]phenyl]acetic acid]
Cc1noc(C)c1-c1cnc2c(-c3ccc(CO)cc3)cn(CC3CCCCC3)c2c1 [P-0704, [4-[1-(cyclohexylmethyl)-6-(3,5-dimethylisoxazol-4-yl)pyrrolo[3,2-b]pyridin-3-yl]phenyl]methanol]
Cc1noc(C)c1-c1cnc2c(-c3cnn(C)c3)cn([C@@H](c3ccccc3)c3ccccn3)c2c1 [P-0721, 3,5-dimethyl-4-[3-(1-methylpyrazol-4-yl)-1-[(S)-phenyl(2-pyridyl)methyl]pyrrolo[3,2-b]pyridin-6-yl]isoxazole]
Cc1noc(C)c1-c1cnc2c(-c3ccc(C(C)(C)C(=O)O)cc3)cn(CC3(C)CCCCC3)c2c1 [P-0783, 2-[4-[6-(3,5-dimethylisoxazol-4-yl)-1-[(1-methylcyclohexyl)methyl]pyrrolo[3,2-b]pyridin-3-yl]phenyl]-2-methyl propanoic acid]
CCOC(=O)c1ccc(-c2cn([C@H](c3ccccc3)c3ccccn3)c3cc(-c4c(C)noc4C)ccc23)cc1 [P-0756, ethyl 4-[6-(3,5-dimethylisoxazol-4-yl)-1-[(R)-phenyl(2-pyridyl)methyl]indol-3-yl]benzoate]
Cc1nnn(C)c1-c1cnc2c(-c3ccc(CC(=O)O)cc3)cn(CC3CCC(F)(F)CC3)c2c1 [P-0811, 2-[4-[1-[(4,4-difluorocyclohexyl)methyl]-6-(3,5-dimethyltriazol-4-yl)pyrrolo[3,2-b]pyridin-3-yl]phenyl]acetic acid]
Cc1noc(C)c1-c1cnc2c(-c3ccc(C#N)nc3)cn([C@@H](c3ccccc3)c3ccccn3)c2c1 [P-0720, 5-[6-(3,5-dimethylisoxazol-4-yl)-1-[(S)-phenyl(2-pyridyl)methyl]pyrrolo[3,2-b]pyridin-3-yl]pyridine-2-carbonitrile]
Cc1noc(C)c1-c1cnc2c(-c3ccc(CO)cc3)cn([C@H](c3ccccc3)c3ccccn3)c2c1 [P-0724, [4-[6-(3,5-dimethylisoxazol-4-yl)-1-[(R)-phenyl(2-pyridyl)methyl]pyrrolo[3,2-b]pyridin-3-yl]phenyl]methanol]
Cc1noc(C)c1-c1cnc2c(-c3ccc(C(=O)O)cc3)cn([C@H](c3ccccn3)C3CCCCC3)c2c1 [P-0815, 4-[1-[(S)-cyclohexyl(2-pyridyl)methyl]-6-(3,5-dimethylisoxazol-4-yl)pyrrolo[3,2-b]pyridin-3-yl]benzoic acid]
